System: 521955-158-R6-J3-PDC complex spheroid growth, % test/control
Assay: Anticancer human tumor 521955-158-R6-J3-PDC patient-derived pancreatic carcinoma cell line growth inhibition [Asc]
Details: for IC50: curve of first compound; for viability, T/C: stronger effect = lower value
Description: Multicellular complex tumor spheroid response to apoptosis pathway targeting inhibitors Alrizomadlin, Pelcitoclax, and Dasminapant in combination with a variety of drugs and investigational agents in selected tumor cell lines
The MDM2 inhibitor alrizomadlin, the Bcl-2/Bcl-xL inhibitor pelcitoclax, and the IAPs inhibitor dasminapant were evaluated both individually and in combination with standard of care and investigational anticancer small molecules within a complex spheroid model of solid tumors. . Complex spheroids include a stromal component modeled by human endothelial cells (HUVEC) and fibroblasts modeled by human mesenchymal stem cells (MSCs). The concentration ranges selected for each drug and investigational agent were based upon clinically achievable concentrations if the clinical Cmax of the agent was known.
Compounds. The drugs and investigational agents: alrizomadlin (APG-115; NSC831270), pelcitoclax (APG-1252; NSC835773), dasminapant (APG-1387;NSC834197), TAK-243 (NSC785004), copanlisib (NSC809693), olaparib (NSC753686), talazoparib (NSC767125), cobimetinib (NSC 768068), eltanexor (KPT-8602, NSC 794443), abemaciclib (NSC 768073), sotorasib (NSC818433), adagrasib (NSC 831453), MRTX-1133 (NSC 836407), Iadademestat (ORY1001, NSC 806812), and RMC-4630 (NSC839698), were obtained from the NCI Developmental Therapeutics Program Chemical Repository. The FDA-approved anticancer drug set is available from the Developmental Therapeutics Program at https://dtp.cancer.gov/organization/dscb/obtaining/available plates.htm. […] The stock solutions were prepared in dimethyl sulfoxide (DMSO, Sigma-Aldrich, St. Louis, MO, cat. D2650) at 800-fold the tested concentration and stored at -70 degrees C prior to their use. All drugs and investigational agents were tested over a range starting from a high concentration at or near the clinical Cmax and decreasing in half-log increments. If the clinical Cmax for an agent had not been determined, the highest concentration tested was 10 microM.
The patient-derived cancer (PDC) cell lines include five colon adenocarcinomas: 186277-243-T-J2-PDC, 616215-338-R-J1-PDC, 439559-082-T-J2-PDC, 463943-066-T-J2-PDC, and 519858-162-T-J1-PDC; three pancreatic carcinomas: 323965-272-R-J2-PDC, 521955-158-R6-J3-PDC, and 521955-158-R2-J5-PDC; two uterine sarcomas: 327498-152-R-J2-PDC and 993429-296-R-J1-PDC; two rhabdomyosarcomas: 755483-174-R-J1-PDC and 772245-204-R-J1-PDC; two soft tissue sarcomas: 126254-015-R-J1-PDC and 494315-158-R-J1-PDC; two malignant fibrous histiocytomas: 317291-083-R-J1-PDC and 596521-263-R-J1-PDC; two breast carcinomas: 171881-019-R-J1-PDC and 885512-296-R-J2-PDC; and one ovarian carcinoma: 6556581-035-R-J-PDC were obtained from the NCI PDMR, (https://pdmr.cancer.gov). The established cell lines HSSY-2 synovial sarcoma (RRID:CVCL 8719), SYO-1 synovial sarcoma (RRID:CVCL_7146), MPNST malignant peripheral neural sheath tumor were obtained from the Sloan Kettering Institute. The following established cell lines were purchased from the American Type Culture Collection (ATCC, Manassas, VA), Sor the received from the NCI repository:, PANC-1 pancreatic carcinoma (CRL-1469, RRID:CVCL_0480), OVCAR-5 ovarian carcinoma (RRID:CVCL_1628), OVCAR-8 ovarian carcinoma (RRID:CVCL_1629), , MCF-7 breast carcinoma (CRL-12584, RRID:CVCL_0031), MDA-MB-231 breast carcinoma (CRL-12532, RRID:CVCL_0062), NCI-H1876 small cell lung carcinoma (CRL-5902, RRID:CVCL_1503), NCI-H510A small cell lung carcinoma (HTB-184, RRID:CVCL_1565), NCI-H1417 (CRL-5869, RRID:CVCL_1469), and NCI-H196 small cell lung carcinoma (CRL-5823, RRID:CVCL_1509). Dr. Peter Houghton (Greehey Children's Cancer Research Institute, University of Texas Health Science Center, San Antonio, TX) provided Rh-18 rhabdomyosarcoma (RRID:CVCL_1659). Pooled donor human umbilical vein endothelial cells (HUVEC, Lonza, cat. CC-2519) and human mesenchymal stem cells (hMSC, Lonza, cat. PT-2501) were purchased from Lonza (Walkersville, MD).
Cell Culture. […]
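Further: spheroids exposed to compounds for 7 days.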
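Wherever viability, T/C is given: 100% = DMSO vehicle control wells.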

Work on `C=CC(=O)N1CCN(c2nc(=O)n(-c3c(C)ccnc3C(C)C)c3nc(-c4c(O)cccc4F)c(F)cc23)C(C)C1` (configuration not stated) + Cc1c(S(C)(=O)=O)c(-c2cc(F)cc(N3CCN(c4ccc(NS(=O)(=O)c5ccc(NC(CCN6CCC(C(=O)OCCCP(=O)(O)O)CC6)CSc6ccccc6)c(S(=O)(=O)C(F)(F)F)c5)cc4)CC3)c2)c(-c2ccc(Cl)cc2)n1C(C)C yielded an IC50 (second compound 0.0316 µM) greater than 10000 nM, an IC50 (second compound 0.1 µM) greater than 10000 nM and an IC50 (second compound 0.316 µM) of less than 31.6 nM. The IC50 (second compound 1 µM) was less than 31.6 nM, the IC50 (second compound 3.16 µM) was less than 31.6 nM and the IC50 (second compound 10 µM) was less than 31.6 nM. For the same compound, the viability, T/C (second compound 0.0316 µM, first compound 0.0316 µM) was 84.4%, the viability, T/C (second compound 0.0316 µM, first compound 0.1 µM) was 84% and the viability, T/C (second compound 0.0316 µM, first compound 0.316 µM) was 84.6%. The viability, T/C (second compound 0.0316 µM, first compound 1 µM) was 80.3%, the viability, T/C (second compound 0.0316 µM, first compound 3.16 µM) was 79.7% and the viability, T/C (second compound 0.0316 µM, first compound 10 µM) was 79.7%. It also gave a viability, T/C (second compound 0.1 µM, first compound 0.0316 µM) of 72.2%, a viability, T/C (second compound 0.1 µM, first compound 0.1 µM) of 72.3% and a viability, T/C (second compound 0.1 µM, first compound 0.316 µM) of 67.6%. The viability, T/C (second compound 0.1 µM, first compound 1 µM) was 68.4%, the viability, T/C (second compound 0.1 µM, first compound 3.16 µM) was 59.6% and the viability, T/C (second compound 0.1 µM, first compound 10 µM) was 50.7%. It also gave a viability, T/C (second compound 0.316 µM, first compound 0.0316 µM) of 47.8%, a viability, T/C (second compound 0.316 µM, first compound 0.1 µM) of 48.4% and a viability, T/C (second compound 0.316 µM, first compound 0.316 µM) of 42.5%. For the same compound, the viability, T/C (second compound 0.316 µM, first compound 1 µM) was 46.3%, the viability, T/C (second compound 0.316 µM, first compound 3.16 µM) was 38.3% and the viability, T/C (second compound 0.316 µM, first compound 10 µM) was 29.2%. It also gave a viability, T/C (second compound 1 µM, first compound 0.0316 µM) of 45.6%, a viability, T/C (second compound 1 µM, first compound 0.1 µM) of 36.8% and a viability, T/C (second compound 1 µM, first compound 0.316 µM) of 41.8%. For the same compound, the viability, T/C (second compound 1 µM, first compound 1 µM) was 33.7%, the viability, T/C (second compound 1 µM, first compound 3.16 µM) was 23.6% and the viability, T/C (second compound 1 µM, first compound 10 µM) was 19.8%. It also gave a viability, T/C (second compound 3.16 µM, first compound 0.0316 µM) of 23.1%, a viability, T/C (second compound 3.16 µM, first compound 0.1 µM) of 22.8% and a viability, T/C (second compound 3.16 µM, first compound 0.316 µM) of 17.4%. It also gave a viability, T/C (second compound 3.16 µM, first compound 1 µM) of 15.6%, a viability, T/C (second compound 3.16 µM, first compound 3.16 µM) of 12.6% and a viability, T/C (second compound 3.16 µM, first compound 10 µM) of 7.39%. The viability, T/C (second compound 10 µM, first compound 0.0316 µM) was 12.7%, the viability, T/C (second compound 10 µM, first compound 0.1 µM) was 9.59% and the viability, T/C (second compound 10 µM, first compound 0.316 µM) was 12.5%. It also gave a viability, T/C (second compound 10 µM, first compound 1 µM) of 9.66%, a viability, T/C (second compound 10 µM, first compound 3.16 µM) of 23.2% and a viability, T/C (second compound 10 µM, first compound 10 µM) of 8.51%.
